Measured values published in patent US20240041830A1, “CIRCULATING BIOMARKERS OF RESPONSE TO PD-1/PD-L1 BLOCKADE AND GSK-3 INHIBITION” (Brown University, priority 2022, published 2024).

Key:
TALL-104 [1] = test: microarray analysis; format: cell-based, human; details: 1 μM, 24 hours, vs untreated
Experimental: Microarrays. A total of 0.5×10^6 tumor cells (HCT-116, HT-29, KM12C) were plated in a 6-well plate and allowed to adhere overnight before 24-hour treatment, as indicated. Then, 1×10^6 immune cells (NK92, TALL-104) were plated and treated with elraglusib as indicated for twenty-four h. RNA was isolated from cell pellets in batches of six using a RNeasy Plus Mini Kit (Cat #74134, Qiagen, Hilden, Germany). Acceptable RNA concentration and quality were verified with Nanodrop and Bioanalyzer measurements. GeneChip™ Human Transcriptome Array 2.0 assays were conducted according to manufacturer instructions in two batches using randomized samples to limit batch effects (Cat #902162, Applied Biosystems, Waltham, MA, USA). Applied Biosystems Transcriptomic Analysis Console (TAC) software (RRID: SCR_016519) was used to calculate fold changes in gene expression relative to the untreated control cells. Values were considered statistically significant for p values<0.05.
Microarray analysis was used to obtain insights into gene expression changes in immune cell lines post-GSK-3 inhibition with elraglusib. Immune cell lines (TALL-104, NK-92) were treated with elraglusib at IC50 concentrations or DMSO as vehicle control for twenty-four hours and treated versus untreated samples were compared in triplicate using microarray analysis. FIG. 11. Results were calculated using a fold-change (FC) cutoff of >1.5, <−1.5, and a minimum p-value of <0.05. NK-92 cells had sixty-one differentially expressed genes post-treatment (FIG. 3D). the inventors observed an increase in genes that promote immune cell proliferation (TNFSF14, RAB38) and control immune cell adhesion and migration (WNK1) post-elraglusib treatment.
TABLE 12 description. TALL-104 immune cell microarray analysis. TALL-104 immune cells were treated with 1 μM elraglusib for 24 hours and treated versus untreated control samples were compared in triplicate via microarray analysis (N=3). Table showing differentially expressed genes of interest with their corresponding fold changes, p values, descriptions, and functions. Genes are ordered by fold change and were calculated using a fold change cutoff of >1.5, <−1.5, and a minimum p value of <0.05.

KM12C = test: CellTiter Glo cell viability; format: cell-based; details: Homo sapiens, treatment up to 50 μM for seventy-two hours
Experimental: (§1) Measurement of cell viability. Cells were seeded at a density of 3×10^3 cells per well in a 96-well plate (Greiner Bio-One, Monroe, NC, USA). Cell viability was assessed using the CellTiter Glo assay (Promega, Madison, WI, USA). Cells were mixed with 25 μL of CellTiter-Glo reagents in 100 μL of culture volume, and bioluminescence imaging was measured using the Xenogen IVIS imager (Caliper Life Sciences, Waltham, MA). The percent of cell viability was determined by normalizing the luminescence signal to control wells. Dose-response curves were generated, and the half-maximal inhibitory concentration (IC50) was calculated using Graph-Pad Prism (RRID: SCR_002798) version 9.2.0. For IC50 generation, concentrations were log-transformed, and data were then normalized to control, and a log (inhibitor) versus response (three parameters) test was used. A panel of human colorectal cell lines was chosen to provide a varied mutational background (TP53, KRAS, BRAF, TRK, APC, PIK3CA). Cells were treated with elraglusib at doses up to 50 μM for seventy-two hours to determine IC10, IC30, IC50, and IC70. Cytokine, chemokine, and growth factor levels were analyzed in the tumor cell culture supernatants after treatment at IC10, IC30, IC50, and IC70 for forty-eight hours using a Luminex 200 multiplexing instrument. Co-culture experiments were conducted with GFP+ SW480 colorectal cancer cells and either NK-92 natural killer cells or TALL-104 T cells at various effector/target ratios in a 48-well plate, in the presence or absence of elraglusib. The inventors performed cell titer glo analysis to determine IC doses after treatment up to 50 μM for seventy-two hours. See TABLE below of IC50 values for the three cell lines.

HT29 = test: CellTiter Glo cell viability; format: cell-based; details: Homo sapiens, HT-29, treatment up to 50 μM for seventy-two hours
Experimental: as §1

HCT116 = test: CellTiter Glo cell viability; format: cell-based; details: Homo sapiens, HCT-116, treatment up to 50 μM for seventy-two hours
Experimental: as §1

TALL-104 [2] = test: 10× single-cell sequencing; format: cell-based, human; details: 1 μM, twenty-four hours vs DMSO
Experimental: (§2) Single-cell RNA sequencing. Single cells were captured and 3′ single-cell gene expression libraries were conducted (Next GEM v3.1) using the 10× Genomics Chromium system by SingulOmics (SingulOmics, New York, NY, USA). Gene expression libraries were sequenced with ˜200 million PE150 reads per sample on Illumina (RRID: SCR_016387) NovaSeq (Illumina, Inc., San Diego, CA, USA). After sequencing, clean reads were then analyzed with human reference genome GRCh38 using Cell Ranger v6.1.2 (RRID: SCR_017344, 10× Genomics, Pleasanton, CA, USA). Data were analyzed and visualized using Loupe Browser (RRID: SCR_018555, 10× Genomics, Pleasanton, CA, USA).
(§3) To determine if there was any heterogeneity in response to drug treatment, the inventors employed a 10× single-cell sequencing analysis on both immune cell lines (TALL-104, NK-92) treated with low-dose 1 μM elraglusib or vehicle control (DMSO) for twenty-four hours. Samples clustered by cell type when aggregate data were visualized using a t-SNE plot (FIG. 3G). […] The inventors noted an increase in immune cell attractant CCL4 in the NK-92 cells and an increase in immune cell chemoattractant CXCR4 in the TALL-104 cells.

NK-92 = test: 10× single-cell sequencing; format: cell-based, human; details: 1 μM, twenty-four hours vs DMSO
Experimental: as §2, §3

## Cn1cc(C2=C(c3coc4ccc(F)cc34)C(=O)NC2=O)c2cc3c(cc21)OCO3 [elraglusib]
TALL-104 [1]
  ACVR1B Fold Change: −1.61
  BCL2A1 Fold Change: 1.63
  CAMK1D Fold Change: −2.5
  CCL3 Fold Change: 1.52
  CCR8 Fold Change: −2.14
  CD84 Fold Change: −1.53
  CKS1B Fold Change: 1.6
  DUSP6 Fold Change: −1.66
  HSPA1A Fold Change: −1.63
  KIF7 Fold Change: 1.56
  ORAI3 Fold Change: 1.51
  PPARA Fold Change: −1.54
  PTPN3 Fold Change: −1.56
  PTPN14 Fold Change: −1.62
  RNY4 Fold Change: 2.19
  RNY5 Fold Change: 1.66
  STX19 Fold Change: 1.58
  UBE3A Fold Change: −1.73
  VAMP8 Fold Change: 1.56
KM12C
  IC50: 200 nM
HT29
  IC50: 410 nM
HCT116
  IC50: 370 nM
TALL-104 [2]
  CD69 expression: increase
  CHI3L1 expression: decrease
  CXCR4 expression: increase
NK-92
  CCL4 expression: increase
  CD69 expression: increase
  CHI3L1 expression: decrease
